Here are results for five molecules from US10168342B2, “Lipid probes and uses thereof” (THE SCRIPPS RESEARCH INSTITUTE, priority 2015, dated 2019).

In experiment [1] the target is T1, AEA-DA lipid probe targets in Neuro2a cells (Mus musculus, UniProt Q99LR1).
T1 sequence (Q99LR1 1-398): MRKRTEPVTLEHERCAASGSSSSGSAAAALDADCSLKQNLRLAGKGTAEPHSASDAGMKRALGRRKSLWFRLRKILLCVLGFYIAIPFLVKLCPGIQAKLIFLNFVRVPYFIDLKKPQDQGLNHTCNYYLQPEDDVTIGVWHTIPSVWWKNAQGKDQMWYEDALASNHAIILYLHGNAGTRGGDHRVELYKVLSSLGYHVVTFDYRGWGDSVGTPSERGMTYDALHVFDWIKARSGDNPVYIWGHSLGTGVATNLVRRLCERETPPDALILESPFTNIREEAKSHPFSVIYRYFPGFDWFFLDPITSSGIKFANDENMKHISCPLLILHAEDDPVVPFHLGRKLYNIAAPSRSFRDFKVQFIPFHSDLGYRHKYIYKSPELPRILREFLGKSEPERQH

Experiment [2] concerns the target T2, AEA-DA lipid probe targets in Neuro2a cells (Mus musculus, UniProt Q8K2C9).
T2 sequence (Q8K2C9 1-362): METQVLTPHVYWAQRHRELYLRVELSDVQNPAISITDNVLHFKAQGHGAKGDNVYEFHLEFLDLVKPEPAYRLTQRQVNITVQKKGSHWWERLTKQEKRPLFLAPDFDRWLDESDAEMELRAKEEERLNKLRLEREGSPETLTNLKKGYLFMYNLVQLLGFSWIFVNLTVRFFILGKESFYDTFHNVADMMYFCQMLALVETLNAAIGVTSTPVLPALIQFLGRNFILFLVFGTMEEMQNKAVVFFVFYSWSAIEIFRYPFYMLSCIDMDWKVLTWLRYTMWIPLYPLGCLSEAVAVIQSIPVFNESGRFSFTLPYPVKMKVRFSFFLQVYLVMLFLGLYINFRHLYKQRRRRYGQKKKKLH

Experiment [3] has as its target T3, AEA-DA lipid probe targets in Neuro2a cells (Mus musculus, UniProt Q62465).
T3 sequence (Q62465 1-406): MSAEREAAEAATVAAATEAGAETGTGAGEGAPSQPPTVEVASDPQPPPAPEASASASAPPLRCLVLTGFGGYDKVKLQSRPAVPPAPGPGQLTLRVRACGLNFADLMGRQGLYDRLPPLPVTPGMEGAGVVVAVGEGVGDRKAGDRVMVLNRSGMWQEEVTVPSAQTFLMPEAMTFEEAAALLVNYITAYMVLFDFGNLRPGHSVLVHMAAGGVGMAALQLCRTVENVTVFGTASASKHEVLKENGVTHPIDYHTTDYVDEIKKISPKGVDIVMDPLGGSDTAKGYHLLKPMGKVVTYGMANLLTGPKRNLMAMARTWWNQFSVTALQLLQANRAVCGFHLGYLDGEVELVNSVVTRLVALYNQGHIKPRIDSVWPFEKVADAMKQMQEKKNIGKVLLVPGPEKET
Conditions: for SILAC ratio, VAT1 (Q99536): Neuro2a cells, AEA-DA probe.

For experiment [4], the target named is T4, AEA-DA lipid probe targets in Neuro2a cells (Mus musculus, UniProt Q8R1L4).
T4 sequence (Q8R1L4 1-214): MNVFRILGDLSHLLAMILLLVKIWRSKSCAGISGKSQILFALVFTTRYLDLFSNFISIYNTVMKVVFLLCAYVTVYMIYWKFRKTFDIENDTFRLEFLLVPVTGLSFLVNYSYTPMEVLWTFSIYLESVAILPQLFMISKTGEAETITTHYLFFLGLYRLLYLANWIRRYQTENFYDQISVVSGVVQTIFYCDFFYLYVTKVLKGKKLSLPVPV

In experiment [5] the target is T5, AEA-DA lipid probe targets in Neuro2a cells (Mus musculus, UniProt P17439).
T5 sequence (P17439 20-515): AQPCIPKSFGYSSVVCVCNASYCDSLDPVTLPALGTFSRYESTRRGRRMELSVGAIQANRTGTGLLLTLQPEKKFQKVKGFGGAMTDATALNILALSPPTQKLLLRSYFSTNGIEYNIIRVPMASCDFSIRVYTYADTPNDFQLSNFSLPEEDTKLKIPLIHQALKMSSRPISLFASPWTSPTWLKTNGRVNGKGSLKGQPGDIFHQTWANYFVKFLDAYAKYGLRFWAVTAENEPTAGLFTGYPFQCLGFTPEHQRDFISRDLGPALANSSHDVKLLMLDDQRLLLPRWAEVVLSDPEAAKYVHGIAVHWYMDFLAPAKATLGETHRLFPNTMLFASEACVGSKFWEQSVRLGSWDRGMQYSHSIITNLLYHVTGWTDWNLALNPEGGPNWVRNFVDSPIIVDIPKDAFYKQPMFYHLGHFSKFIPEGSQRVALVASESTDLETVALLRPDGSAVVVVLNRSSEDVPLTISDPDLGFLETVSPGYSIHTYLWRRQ

Experiment [6] has as its target T6, AEA-DA lipid probe targets in Neuro2a cells (Mus musculus, UniProt P52825).
T6 sequence (P52825 26-658): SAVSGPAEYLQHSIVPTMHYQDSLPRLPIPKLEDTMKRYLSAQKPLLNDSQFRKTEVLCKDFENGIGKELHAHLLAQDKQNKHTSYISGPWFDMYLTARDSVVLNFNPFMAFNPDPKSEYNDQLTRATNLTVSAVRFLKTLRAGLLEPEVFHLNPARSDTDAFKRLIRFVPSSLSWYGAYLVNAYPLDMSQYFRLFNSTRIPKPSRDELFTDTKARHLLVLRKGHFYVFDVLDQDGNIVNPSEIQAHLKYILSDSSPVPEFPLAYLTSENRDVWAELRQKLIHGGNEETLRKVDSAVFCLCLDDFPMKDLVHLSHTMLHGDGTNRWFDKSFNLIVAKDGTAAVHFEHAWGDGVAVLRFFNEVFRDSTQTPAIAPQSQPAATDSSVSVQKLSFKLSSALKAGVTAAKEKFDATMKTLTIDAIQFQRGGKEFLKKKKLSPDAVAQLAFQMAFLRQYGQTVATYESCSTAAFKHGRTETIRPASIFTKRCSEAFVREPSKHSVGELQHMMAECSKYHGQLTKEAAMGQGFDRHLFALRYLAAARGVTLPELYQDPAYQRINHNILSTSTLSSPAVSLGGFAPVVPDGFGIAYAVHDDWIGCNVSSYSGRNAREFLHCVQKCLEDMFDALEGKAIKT

Experiment [7] deals with AEA-DA lipid probe targets in Neuro2a cells (Mus musculus, UniProt P47740).
AEA-DA lipid probe targets in Neuro2a cells (Mus musculus, UniProt P47740), sequence (P47740 whole entry): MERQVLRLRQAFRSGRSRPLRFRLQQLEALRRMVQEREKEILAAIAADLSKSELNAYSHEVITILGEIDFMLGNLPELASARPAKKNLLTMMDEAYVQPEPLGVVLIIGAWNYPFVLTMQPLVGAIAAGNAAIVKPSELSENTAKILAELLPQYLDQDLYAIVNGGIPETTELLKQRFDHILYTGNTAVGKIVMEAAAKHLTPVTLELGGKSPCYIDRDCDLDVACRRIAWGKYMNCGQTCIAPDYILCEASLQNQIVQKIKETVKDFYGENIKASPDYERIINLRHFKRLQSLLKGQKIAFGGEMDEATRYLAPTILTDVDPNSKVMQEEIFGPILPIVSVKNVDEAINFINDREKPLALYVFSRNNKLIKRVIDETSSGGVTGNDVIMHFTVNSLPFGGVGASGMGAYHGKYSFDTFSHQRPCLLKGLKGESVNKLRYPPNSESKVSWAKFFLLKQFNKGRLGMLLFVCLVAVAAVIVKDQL

Where two headings read alike, the source gives them in different places.

In the case of `CCCCC/C=C\C/C=C\C/C=C\C/C=C\CCCC(=O)NCCO` [AEA, anandamide, reference compound], the “SILAC ratio, Abhd12” value in experiment [1] (competitor 200 μM) was found to be 1.8. Further, the “SILAC ratio ptplad1” value in experiment [2] (competitor 200 μM) is reported as 1.8. In addition, in experiment [3] (competitor 200 μM), the “SILAC ratio, VAT1 (Q99536)” value is recorded as 1.6 and the “SILAC ratio Vat1” value was 1.6. Also, in experiment [4] (competitor 200 μM), the “SILAC ratio, Kdelr3” value is 1.2. Moreover, the “SILAC ratio Gba” value in experiment [5] (competitor 200 μM) worked out at 1.5. Also, the “SILAC ratio, Cpt2” value in experiment [6] (competitor 200 μM) was 1.1. Besides, in experiment [7] (competitor 200 μM), the “SILAC ratio, Aldh3a2” value is 1.7.
Consider `C=CCN(C)CCCCCCOc1ccc(C(=O)c2ccc(Br)cc2)c(F)c1` [Ro 48-8071, reference compound], for which the “SILAC ratio, Abhd12” value in experiment [1] (competitor 25 μM) is 1.0. Besides, the “SILAC ratio ptplad1” value in experiment [2] (competitor 25 μM) turned out to be 1.4. Further, in experiment [3] (competitor 25 μM), the “SILAC ratio, VAT1 (Q99536)” value is given as 1.2 and the “SILAC ratio Vat1” value is listed as 1.2. Further, the “SILAC ratio, Kdelr3” value in experiment [4] (competitor 25 μM) was 0.9. The “SILAC ratio Gba” value in experiment [5] (competitor 25 μM) is 0.7. Besides, the “SILAC ratio, Cpt2” value in experiment [6] (competitor 25 μM) stood at 2.1. The “SILAC ratio, Aldh3a2” value in experiment [7] (competitor 25 μM) came to 1.3.
With `CN1CCN(C(=O)c2c(-c3ccccc3)c3cc([N+](=O)[O-])ccc3n2C)CC1` [KML110, (1-Methyl-5-nitro-3-phenyl-1H-indol-2-yl)(4-methylpiperazin-1-yl)methanone], in experiment [1] (competitor 25 μM), the “SILAC ratio, Abhd12” value worked out at 1.2. Moreover, the “SILAC ratio ptplad1” value in experiment [2] (competitor 25 μM) is reported as 1.7. In addition, in experiment [3] (competitor 25 μM), the “SILAC ratio Vat1” value was 1.4. In experiment [4] (competitor 25 μM), the “SILAC ratio, Kdelr3” value was determined as 1.2. Also, the “SILAC ratio Gba” value in experiment [5] (competitor 25 μM) turned out to be 2.4. Also, in experiment [6] (competitor 25 μM), the “SILAC ratio, Cpt2” value is reported as 1.5. Besides, the “SILAC ratio, Aldh3a2” value in experiment [7] (competitor 25 μM) stood at 1.4.
Consider `O=C(/C=C/c1cccnc1)NCCCCC1CCN(C(=O)c2ccccc2)CC1` [FK-866, reference compound], for which, in experiment [1] (competitor 25 μM), the “SILAC ratio, Abhd12” value is given as 1.0. Besides, the “SILAC ratio ptplad1” value in experiment [2] (competitor 25 μM) amounted to 1.2. In experiment [3] (competitor 25 μM), the “SILAC ratio, VAT1 (Q99536)” value stood at 1.9 and the “SILAC ratio Vat1” value is 1.9. Moreover, the “SILAC ratio, Kdelr3” value in experiment [4] (competitor 25 μM) is on record as 1.1. The “SILAC ratio Gba” value in experiment [5] (competitor 25 μM) was 1.0. Moreover, the “SILAC ratio, Cpt2” value in experiment [6] (competitor 25 μM) was determined as 3.1. Also, in experiment [7] (competitor 25 μM), the “SILAC ratio, Aldh3a2” value amounted to 1.6.
In the case of `CN1CCN(C(=O)c2[nH]c3ccc([N+](=O)[O-])cc3c2-c2ccccc2)CC1` [MJN228, (4-Methylpiperazin-1-yl)(5-nitro-3-phenyl-1H-indol-2-yl)methanone], the “SILAC ratio, Abhd12” value in experiment [1] (competitor 10 μM) is 1.2; in experiment [1] (competitor 25 μM) it was 1.2; in experiment [1] (competitor 50 μM) it was 1.2; in experiment [1] (competitor 100 μM), 1.4. Further, the “SILAC ratio ptplad1” value in experiment [2] (competitor 10 μM) is given as 1.3; in experiment [2] (competitor 25 μM) it was 1.7; in experiment [2] (competitor 50 μM), 1.9; in experiment [2] (competitor 100 μM), 2.3. For the same molecule, the “SILAC ratio Vat1” value was 1.2 in experiment [3] (competitor 10 μM), 1.3 in experiment [3] (competitor 25 μM), 1.0 in experiment [3] (competitor 50 μM) and 1.2 in experiment [3] (competitor 100 μM). Moreover, the “SILAC ratio, Kdelr3” value is given as 1.2 in experiment [4] (competitor 10 μM), 1.3 in experiment [4] (competitor 25 μM), 1.3 in experiment [4] (competitor 50 μM) and 1.6 in experiment [4] (competitor 100 μM). In addition, the “SILAC ratio Gba” value in experiment [5] (competitor 10 μM) is 2.2. Further, the “SILAC ratio, Cpt2” value in experiment [6] (competitor 10 μM) worked out at 1.3; in experiment [6] (competitor 25 μM), 1.7; in experiment [6] (competitor 50 μM), 2.7; in experiment [6] (competitor 100 μM) it was 5.5. Further, the “SILAC ratio, Aldh3a2” value in experiment [7] (competitor 10 μM) came to 1.2; in experiment [7] (competitor 25 μM), 1.8; in experiment [7] (competitor 50 μM), 1.7; in experiment [7] (competitor 100 μM) it was 2.1.
